In US11214803B2, “Modulators of YAP1 expression” (Ionis Pharmaceuticals, Inc., priority 2019, dated 2022):
Strand notation (5' to 3'): a small letter for the sugar, then the base; units joined by * are phosphorothioate-linked, units joined directly phosphodiester-linked; [ ] holds rarer units or linkages, { } end groups; capitals alone tell only the bases. k = constrained ethyl (cEt); [5mC] = 5-methylcytosine; d = 2'-deoxy (DNA)

Test system: Yap1 mRNA
Assay: Dose-dependent inhibition of human Yap1 in A-431 cells (Example 7, 10,000 cells per well, RTS36584)
Assay type: cell-based
Conditions: free uptake
Description: Modified oligonucleotides described in the studies above were tested at various doses in A-431 cells. Cultured A-431 cells at a density of 10,000 cells per well were treated using free uptake with modified oligonucleotides diluted to concentrations described in the tables below. After approximately 48 hours, Yap1 mRNA levels were measured as previously described using the Human Yap1 primer-probe set RTS36584. Yap1 mRNA levels were normalized to total RNA content, as measured by RIBOGREEN®. Results are presented in the tables below as percent control of the amount of Yap1 mRNA relative to untreated control cells (% UTC). IC50s were calculated using a linear regression on a log/linear plot of the data in excel.

[1] = Table 58, 15.6 nM, A-431 cells 10,000 cells per well, 48 hours
[2] = Table 58, 62.5 nM, A-431 cells 10,000 cells per well, 48 hours
[3] = Table 58, 4000.00 nM, A-431 cells 10,000 cells per well, 48 hours
[4] = Table 58, A-431 cells 10,000 cells per well
[5] = Table 61, 15.6 nM, A-431 cells 10,000 cells per well, 48 hours
[6] = Table 61, 62.5 nM, A-431 cells 10,000 cells per well, 48 hours
[7] = Table 61, 4000.00 nM, A-431 cells 10,000 cells per well, 48 hours
[8] = Table 61, A-431 cells 10,000 cells per well
[9] = Table 56, 15.6 nM, A-431 cells 10,000 cells per well, 48 hours
[10] = Table 56, 62.5 nM, A-431 cells 10,000 cells per well, 48 hours
[11] = Table 56, 4000.00 nM, A-431 cells 10,000 cells per well, 48 hours
[12] = Table 56, A-431 cells 10,000 cells per well
[13] = Table 60, 15.6 nM, A-431 cells 10,000 cells per well, 48 hours
[14] = Table 60, 62.5 nM, A-431 cells 10,000 cells per well, 48 hours
[15] = Table 60, 4000.00 nM, A-431 cells 10,000 cells per well, 48 hours
[16] = Table 60, A-431 cells 10,000 cells per well
[17] = Table 57, 15.6 nM, A-431 cells 10,000 cells per well, 48 hours
[18] = Table 57, 62.5 nM, A-431 cells 10,000 cells per well, 48 hours
[19] = Table 57, 4000.00 nM, A-431 cells 10,000 cells per well, 48 hours
[20] = Table 57, A-431 cells 10,000 cells per well

958542 (kT*kA*kT*dA*dG*dT*dA*dT*dT*d[5mC]*dT*dA*dT*k[5mC]*k[5mC]*kA; antisense) [compound 958542]
Yap1 mRNA, % UTC [1]: 90 % UTC | Yap1 mRNA, % UTC [2]: 70 % UTC | Yap1 mRNA, % UTC [3]: 17 % UTC | IC50 [4]: 100 nM

958599 (kT*kT*k[5mC]*dA*dA*dG*dA*dA*dT*dA*d[5mC]*d[5mC]*d[5mC]*kA*kG*kT; antisense) [compound 958599]
Yap1 mRNA, % UTC [5]: 100 % UTC | Yap1 mRNA, % UTC [6]: 74 % UTC | Yap1 mRNA, % UTC [7]: 16 % UTC | IC50 [8]: 200 nM

958735 (kA*kG*k[5mC]*dA*dA*dT*d[5mC]*dT*dT*dG*dT*dG*dG*kA*kT*k[5mC]; antisense) [compound 958735]
Yap1 mRNA, % UTC (15.6 nM, A-431 cells, 10,000 cells per well, approximately 48 hours): 116 % UTC | Yap1 mRNA, % UTC (62.5 nM, A-431 cells, 10,000 cells per well, approximately 48 hours): 69 % UTC | Yap1 mRNA, % UTC (4000.00 nM, A-431 cells, 10,000 cells per well, approximately 48 hours): 23 % UTC | IC50 (A-431 cells, approximately 48 hours, linear regression on log/linear plot): 200 nM

958577 (kT*k[5mC]*kT*dG*dT*dG*dG*d[5mC]*dT*dA*d[5mC]*dT*dG*kG*k[5mC]*kA; antisense) [compound 958577]
Yap1 mRNA, % UTC [1]: 81 % UTC | Yap1 mRNA, % UTC [2]: 51 % UTC | Yap1 mRNA, % UTC [3]: 11 % UTC | IC50 [4]: 100 nM

958477 (kA*kT*kT*dT*d[5mC]*d[5mC]*dG*dG*dT*dG*d[5mC]*dA*dT*kG*kT*kG; antisense) [compound 958477]
Yap1 mRNA, % UTC [1]: 83 % UTC | Yap1 mRNA, % UTC [2]: 37 % UTC | Yap1 mRNA, % UTC [3]: 6 % UTC | IC50 [4]: 100 nM

958361 (antisense kG*k[5mC]*kT*d[5mC]*dG*dA*dA*d[5mC]*dA*dT*dG*d[5mC]*dT*kG*kT*kG) [compound 958361]
Yap1 mRNA, % UTC [9]: 100 % UTC | Yap1 mRNA, % UTC [10]: 80 % UTC | Yap1 mRNA, % UTC [11]: 22 % UTC | IC50 [12]: 220 nM

958587 (kG*kG*kT*dG*dA*d[5mC]*dT*dG*dA*dA*dA*d[5mC]*dT*k[5mC]*kT*kA; antisense) [compound 958587]
Yap1 mRNA, % UTC [1]: 94 % UTC | Yap1 mRNA, % UTC [2]: 49 % UTC | Yap1 mRNA, % UTC [3]: 7 % UTC | IC50 [4]: 100 nM

958508 (kG*kA*kG*dA*dG*d[5mC]*dA*dG*dA*dT*dA*dA*dT*k[5mC]*kG*kA; antisense) [compound 958508]
Yap1 mRNA, % UTC [13]: 65 % UTC | Yap1 mRNA, % UTC [14]: 64 % UTC | Yap1 mRNA, % UTC [15]: 13 % UTC | IC50 [16]: 100 nM

958523 (kT*kT*k[5mC]*d[5mC]*dA*dA*dT*d[5mC]*dG*dA*dG*dA*d[5mC]*kT*kT*kA; antisense) [compound 958523]
Yap1 mRNA, % UTC [13]: 86 % UTC | Yap1 mRNA, % UTC [14]: 64 % UTC | Yap1 mRNA, % UTC [15]: 12 % UTC | IC50 [16]: 100 nM

958579 (kA*kT*k[5mC]*dT*dT*dA*dA*dT*d[5mC]*dT*dG*dT*dG*kG*k[5mC]*kT; antisense) [compound 958579]
Yap1 mRNA, % UTC [5]: 85 % UTC | Yap1 mRNA, % UTC [6]: 52 % UTC | Yap1 mRNA, % UTC [7]: 12 % UTC | IC50 [8]: 100 nM

958793 (k[5mC]*k[5mC]*kG*d[5mC]*dA*dT*dT*dG*d[5mC]*d[5mC]*dT*dA*dA*kG*kA*kG; antisense) [compound 958793]
Yap1 mRNA, % UTC [13]: 88 % UTC | Yap1 mRNA, % UTC [14]: 61 % UTC | Yap1 mRNA, % UTC [15]: 25 % UTC | IC50 [16]: 200 nM

958496 (k[5mC]*k[5mC]*kT*dT*dA*dT*dA*dA*dG*d[5mC]*dT*d[5mC]*d[5mC]*kT*kA*kA; antisense) [compound 958496]
Yap1 mRNA, % UTC [9]: 86 % UTC | Yap1 mRNA, % UTC [10]: 53 % UTC | Yap1 mRNA, % UTC [11]: 9 % UTC | IC50 [12]: 90 nM

958786 (kT*kA*kT*dG*dT*d[5mC]*d[5mC]*dT*dA*d[5mC]*dT*dT*dT*k[5mC]*k[5mC]*k[5mC]; antisense) [compound 958786]
Yap1 mRNA, % UTC [17]: 106 % UTC | Yap1 mRNA, % UTC [18]: 84 % UTC | Yap1 mRNA, % UTC [19]: 25 % UTC | IC50 [20]: 300 nM

958526 (kA*kG*kT*dA*dA*dG*dA*dA*d[5mC]*dA*dA*dT*d[5mC]*kT*kT*kG; antisense) [compound 958526]
Yap1 mRNA, % UTC [17]: 118 % UTC | Yap1 mRNA, % UTC [18]: 83 % UTC | Yap1 mRNA, % UTC [19]: 17 % UTC | IC50 [20]: 200 nM
